Data published in publication doi:10.1101/2024.09.05.611349v1 (biorxiv, 2024).
≈ marks a conversion by molar mass, not a printed value. Like-named read-outs stand apart in the source and are kept apart here.

How the values were obtained:
Experiment in all cases: microbe, parasite or virus in culture
Design in all cases: species or system gram-positive clinical isolates
[1] = tested on: Enterococcus faecalis EFA 15-1; conditions: Enterococcus faecalis
[2] = tested on: Enterococcus faecalis EFA 15-2; conditions: Enterococcus faecalis
[3] = tested on: Enterococcus faecalis EFA 15-57; conditions: Enterococcus faecalis
[4] = tested on: Enterococcus faecalis EFA 15-58; conditions: Enterococcus faecalis
[5] = tested on: Enterococcus faecium EFM 15-11; conditions: Enterococcus faecium
[6] = tested on: Enterococcus faecium EFM 15-2; conditions: Enterococcus faecium
[7] = tested on: Enterococcus faecium EFM 15-52; conditions: Enterococcus faecium
[8] = tested on: Enterococcus faecium EFM 15-7; conditions: Enterococcus faecium
[9] = tested on: Enterococcus faecium EFM 15-9; conditions: Enterococcus faecium
[10] = tested on: Staphylococcus aureus MRSA 15-2; conditions: Staphylococcus aureus, MRSA
[11] = tested on: Staphylococcus aureus MRSA 16-1; conditions: Staphylococcus aureus, MRSA
[12] = tested on: Staphylococcus aureus MRSA 17-2; conditions: Staphylococcus aureus, MRSA
[13] = tested on: Staphylococcus aureus MRSA 17-7; conditions: Staphylococcus aureus, MRSA
[14] = tested on: Staphylococcus aureus MRSA 17-8; conditions: Staphylococcus aureus, MRSA
[15] = tested on: Staphylococcus aureus MSSA 15-1; conditions: Staphylococcus aureus, MSSA
[16] = tested on: Staphylococcus aureus MSSA 15-2; conditions: Staphylococcus aureus, MSSA
[17] = tested on: Staphylococcus aureus MSSA 15-6; conditions: Staphylococcus aureus, MSSA
[18] = tested on: Staphylococcus aureus MSSA 15-7; conditions: Staphylococcus aureus, MSSA
[19] = tested on: Staphylococcus aureus MSSA 15-8; conditions: Staphylococcus aureus, MSSA
[20] = tested on: Staphylococcus epidermidis MRSE 15-1; conditions: Staphylococcus epidermidis, MRSE
[21] = tested on: Staphylococcus epidermidis MRSE 15-2; conditions: Staphylococcus epidermidis, MRSE
[22] = tested on: Staphylococcus epidermidis MRSE 15-3; conditions: Staphylococcus epidermidis, MRSE
[23] = tested on: Staphylococcus epidermidis MRSE 15-78; conditions: Staphylococcus epidermidis, MRSE
[24] = tested on: Staphylococcus epidermidis MRSE 15-81; conditions: Staphylococcus epidermidis, MRSE
[25] = tested on: Staphylococcus epidermidis MRSE 15-83; conditions: Staphylococcus epidermidis, MRSE
[26] = tested on: Staphylococcus epidermidis MRSE 17-1; conditions: Staphylococcus epidermidis, MRSE
[27] = tested on: Staphylococcus epidermidis MRSE 17-3; conditions: Staphylococcus epidermidis, MRSE
[28] = read-out: MIC(μg/ml) / vancomycin

CCCCCOc1ccc(C(=O)NNC(=S)NC(C)=O)cc1 [1b, N-(2-(4-(n-pentoxy)benzoyl)hydrazine-1-carbonothioyl)acetamide]
MIC ([1]; EFA151, read-out: MIC(μg/ml) / 1b): 8 µg/mL (≈ 24.7 µM)
MIC ([2]; EFA152, read-out: MIC(μg/ml) / 1b): 8 µg/mL (≈ 24.7 µM)
MIC ([3]; EFA1557, read-out: MIC(μg/ml) / 1b): 4 µg/mL (≈ 12.4 µM)
MIC ([4]; EFA1558, read-out: MIC(μg/ml) / 1b): 4 µg/mL (≈ 12.4 µM)
MIC ([5]; EFM1511, read-out: MIC(μg/ml) / 1b): 4 µg/mL (≈ 12.4 µM)
MIC ([6]; EFM152, read-out: MIC(μg/ml) / 1b): 4 µg/mL (≈ 12.4 µM)
MIC ([7]; EFM1552, read-out: MIC(μg/ml) / 1b): 8 µg/mL (≈ 24.7 µM)
MIC ([8]; EFM157, read-out: MIC(μg/ml) / 1b): 2 µg/mL (≈ 6.18 µM)
MIC ([9]; EFM159, read-out: MIC(μg/ml) / 1b): 4 µg/mL (≈ 12.4 µM)
MIC ([10]; read-out: MIC(μg/ml) / 1b): 4 µg/mL (≈ 12.4 µM)
MIC ([11]; read-out: MIC(μg/ml) / 1b): 2 µg/mL (≈ 6.18 µM)
MIC ([12]; read-out: MIC(μg/ml) / 1b): 4 µg/mL (≈ 12.4 µM)
MIC ([13]; read-out: MIC(μg/ml) / 1b): 2 µg/mL (≈ 6.18 µM)
MIC ([14]; read-out: MIC(μg/ml) / 1b): 2 µg/mL (≈ 6.18 µM)
MIC ([15]; read-out: MIC(μg/ml) / 1b): 1 µg/mL (≈ 3.09 µM)
MIC ([16]; read-out: MIC(μg/ml) / 1b): 2 µg/mL (≈ 6.18 µM)
MIC ([17]; read-out: MIC(μg/ml) / 1b): 2 µg/mL (≈ 6.18 µM)
MIC ([18]; read-out: MIC(μg/ml) / 1b): 2 µg/mL (≈ 6.18 µM)
MIC ([19]; read-out: MIC(μg/ml) / 1b): 2 µg/mL (≈ 6.18 µM)
MIC ([20]; read-out: MIC(μg/ml) / 1b): 4 µg/mL (≈ 12.4 µM)
MIC ([21]; read-out: MIC(μg/ml) / 1b): 4 µg/mL (≈ 12.4 µM)
MIC ([22]; read-out: MIC(μg/ml) / 1b): 2 µg/mL (≈ 6.18 µM)
MIC ([23]; read-out: MIC(μg/ml) / 1b): 2 µg/mL (≈ 6.18 µM)
MIC ([24]; read-out: MIC(μg/ml) / 1b): 0.5 µg/mL (≈ 1.55 µM)
MIC ([25]; read-out: MIC(μg/ml) / 1b): 1 µg/mL (≈ 3.09 µM)
MIC ([26]; read-out: MIC(μg/ml) / 1b): 0.5 µg/mL (≈ 1.55 µM)
MIC ([27]; read-out: MIC(μg/ml) / 1b): 1 µg/mL (≈ 3.09 µM)

CN[C@H](CC(C)C)C(=O)N[C@H]1C(=O)N[C@@H](CC(N)=O)C(=O)N[C@H]2C(=O)N[C@H]3C(=O)N[C@H](C(=O)N[C@H](C(=O)O)c4cc(O)cc(O)c4-c4cc3ccc4O)[C@H](O)c3ccc(c(Cl)c3)Oc3cc2cc(c3O[C@@H]2O[C@H](CO)[C@@H](O)[C@H](O)[C@H]2O[C@H]2C[C@](C)(N)[C@H](O)[C@H](C)O2)Oc2ccc(cc2Cl)[C@H]1O [vancomycin]
MIC ([1]; EFA151, read-out: MIC(μg/ml) / vancomycin): 0.5 µg/mL (≈ 0.345 µM)
MIC ([2]; EFA152, read-out: MIC(μg/ml) / vancomycin): 0.5 µg/mL (≈ 0.345 µM)
MIC ([3]; EFA1557, read-out: MIC(μg/ml) / vancomycin): 2 µg/mL (≈ 1.38 µM)
MIC ([4]; EFA1558, read-out: MIC(μg/ml) / vancomycin): 0.5 µg/mL (≈ 0.345 µM)
MIC ([5]; EFM1511, read-out: MIC(μg/ml) / vancomycin): 0.5 µg/mL (≈ 0.345 µM)
MIC ([6]; EFM152, read-out: MIC(μg/ml) / vancomycin): 2 µg/mL (≈ 1.38 µM)
MIC ([7]; EFM1552, read-out: MIC(μg/ml) / vancomycin): 2 µg/mL (≈ 1.38 µM)
MIC ([8]; EFM157, read-out: MIC(μg/ml) / vancomycin): 0.5 µg/mL (≈ 0.345 µM)
MIC ([9]; EFM159, read-out: MIC(μg/ml) / vancomycin): 0.5 µg/mL (≈ 0.345 µM)
MIC [10, 28]: 2 µg/mL (≈ 1.38 µM)
MIC [11, 28]: 1 µg/mL (≈ 0.69 µM)
MIC [12, 28]: 0.5 µg/mL (≈ 0.345 µM)
MIC [13, 28]: 0.25 µg/mL (≈ 0.173 µM)
MIC [14, 28]: 0.5 µg/mL (≈ 0.345 µM)
MIC [15, 28]: 1 µg/mL (≈ 0.69 µM)
MIC [16, 28]: 1 µg/mL (≈ 0.69 µM)
MIC [17, 28]: 0.5 µg/mL (≈ 0.345 µM)
MIC [18, 28]: 1 µg/mL (≈ 0.69 µM)
MIC [19, 28]: 0.5 µg/mL (≈ 0.345 µM)
MIC [20, 28]: 2 µg/mL (≈ 1.38 µM)
MIC [21, 28]: 2 µg/mL (≈ 1.38 µM)
MIC [22, 28]: 2 µg/mL (≈ 1.38 µM)
MIC [23, 28]: 1 µg/mL (≈ 0.69 µM)
MIC [24, 28]: 2 µg/mL (≈ 1.38 µM)
MIC [25, 28]: 1 µg/mL (≈ 0.69 µM)
MIC [26, 28]: 1 µg/mL (≈ 0.69 µM)
MIC [27, 28]: 2 µg/mL (≈ 1.38 µM)
